US20230045421A1 (priority 2018, published 2023)

Test system: HBV rcDNA
Assay: HepDE19 assay with bDNA quantitation of HBV rcDNA
Type: cell-based, hepatitis B virus
Conditions: HepDE19 assay, inhibition of formation of rcDNA; read-out: DE-19bDNA EC50
Method in brief: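 Compounds, top concentration 25 μM in 8-point duplicate series, were applied to Tet-free HepDE19 cultures for 7 days. Branched-DNA quantitation of HBV rcDNA against untreated wells gave EC50 and EC90 by 4-parameter fit. Viability (CC50) came from ATP luminescence on parallel plates incubated 4 days.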

SMILES | EC50
CC(c1c[nH]c(=O)c2ccc(F)cc12)N(C)C(=O)Nc1ccc(F)c(Cl)c1 (single isomer, unassigned) [Compound 170, 3-(3-Chloro-4-fluorophenyl)-1-(1-(6-fluoro-1-oxo-1,2-dihydroisoquinolin-4-yl)ethyl)-1-methylurea] | 30 nM
CC(c1c[nH]c(=O)c2ccc(Cl)cc12)N(C)C(=O)Nc1ccc(F)c(Cl)c1 (single isomer, unassigned) [Compound 171, 1-(1-(6-Chloro-1-oxo-1,2-dihydroisoquinolin-4-yl)ethyl)-3-(3-chloro-4-fluorophenyl)-1-methylurea] | 5400 nM
CC(c1c[nH]c(=O)c2ccc(Cl)cc12)N(C)C(=O)Nc1ccc(F)c(Cl)c1 (single isomer, unassigned) [Compound 172, 1-(1-(6-Chloro-1-oxo-1,2-dihydroisoquinolin-4-yl)ethyl)-3-(3-chloro-4-fluorophenyl)-1-methylurea] | 120 nM
COc1ccc2c(C(C)N(C)C(=O)Nc3ccc(F)c(Cl)c3)c[nH]c(=O)c2c1 (single isomer, unassigned) [Compound 177, 3-(3-Chloro-4-fluorophenyl)-1-(1-(7-methoxy-1-oxo-1,2-dihydroisoquinolin-4-yl)ethyl)-1-methylurea] | 2200 nM
COc1ccc2c(C(C)N(C)C(=O)Nc3ccc(F)c(Cl)c3)c[nH]c(=O)c2c1 (single isomer, unassigned) [Compound 178, 3-(3-Chloro-4-fluorophenyl)-1-(1-(7-methoxy-1-oxo-1,2-dihydroisoquinolin-4-yl)ethyl)-1-methylurea] | 170 nM
COc1ccc2c(=O)[nH]cc(C(C)N(C)C(=O)Nc3ccc(F)c(Cl)c3)c2c1 (single isomer, unassigned) [Compound 179, 3-(3-Chloro-4-fluorophenyl)-1-(1-(6-methoxy-1-oxo-1,2-dihydroisoquinolin-4-yl)ethyl)-1-methylurea] | 7300 nM
COc1ccc2c(=O)[nH]cc(C(C)N(C)C(=O)Nc3ccc(F)c(Cl)c3)c2c1 (single isomer, unassigned) [Compound 180, 3-(3-Chloro-4-fluorophenyl)-1-(1-(6-methoxy-1-oxo-1,2-dihydroisoquinolin-4-yl)ethyl)-1-methylurea] | 1400 nM
CC(c1cn(C)c(=O)c2ccccc12)N(C)C(=O)Nc1ccc(F)c(Cl)c1 (single isomer, unassigned) [Compound 181, 3-(3-Chloro-4-fluorophenyl)-1-methyl-1-(1-(2-methyl-1-oxo-1,2-dihydroisoquinolin-4-yl)ethyl)urea] | 1800 nM
CC(c1cn(C)c(=O)c2ccccc12)N(C)C(=O)Nc1ccc(F)c(Cl)c1 (single isomer, unassigned) [Compound 182, 3-(3-Chloro-4-fluorophenyl)-1-methyl-1-(1-(2-methyl-1-oxo-1,2-dihydroisoquinolin-4-yl)ethyl)urea] | 30 nM
CCn1cc(C(C)N(C)C(=O)Nc2ccc(F)c(Cl)c2)c2ccccc2c1=O (single isomer, unassigned) [Compound 183, 3-(3-Chloro-4-fluorophenyl)-1-(1-(2-ethyl-1-oxo-1,2-dihydroisoquinolin-4-yl)ethyl)-1-methylurea] | 18000 nM
CCn1cc(C(C)N(C)C(=O)Nc2ccc(F)c(Cl)c2)c2ccccc2c1=O (single isomer, unassigned) [Compound 184, 3-(3-Chloro-4-fluorophenyl)-1-(1-(2-ethyl-1-oxo-1,2-dihydroisoquinolin-4-yl)ethyl)-1-methylurea] | 90 nM
CCCn1cc(C(C)N(C)C(=O)Nc2ccc(F)c(Cl)c2)c2ccccc2c1=O (single isomer, unassigned) [Compound 185, 3-(3-Chloro-4-fluorophenyl)-1-methyl-1-(1-(1-oxo-2-propyl-1,2-dihydroisoquinolin-4-yl)ethyl)urea] | 340 nM
CCCn1cc(C(C)N(C)C(=O)Nc2ccc(F)c(Cl)c2)c2ccccc2c1=O (single isomer, unassigned) [Compound 186, 3-(3-Chloro-4-fluorophenyl)-1-methyl-1-(1-(1-oxo-2-propyl-1,2-dihydroisoquinolin-4-yl)ethyl)urea] | 8400 nM
CC(c1cn(C(C)C)c(=O)c2ccccc12)N(C)C(=O)Nc1ccc(F)c(Cl)c1 (single isomer, unassigned) [Compound 187, 3-(3-Chloro-4-fluorophenyl)-1-(1-(2-isopropyl-1-oxo-1,2-dihydroisoquinolin-4-yl)ethyl)-1-methylurea] | 140 nM
CC(c1cn(C(C)C)c(=O)c2ccccc12)N(C)C(=O)Nc1ccc(F)c(Cl)c1 (single isomer, unassigned) [Compound 188, 3-(3-Chloro-4-fluorophenyl)-1-(1-(2-isopropyl-1-oxo-1,2-dihydroisoquinolin-4-yl)ethyl)-1-methylurea] | 1800 nM
CC(c1cn(C2CC2)c(=O)c2ccccc12)N(C)C(=O)Nc1ccc(F)c(Cl)c1 (single isomer, unassigned) [Compound 189, 3-(3-Chloro-4-fluorophenyl)-1-(1-(2-cyclopropyl-1-oxo-1,2-dihydroisoquinolin-4-yl)ethyl)-1-methylurea] | 2400 nM
CC(c1cn(C2CC2)c(=O)c2ccccc12)N(C)C(=O)Nc1ccc(F)c(Cl)c1 (single isomer, unassigned) [Compound 190, 3-(3-Chloro-4-fluorophenyl)-1-(1-(2-cyclopropyl-1-oxo-1,2-dihydroisoquinolin-4-yl)ethyl)-1-methylurea] | 170 nM
CC(c1c[nH]c(=O)c2ccccc12)N(CC1CCCC1)C(=O)Nc1ccc(F)c(Cl)c1 (single isomer, unassigned) [Compound 192, 3-(3-Chloro-4-fluorophenyl)-1-(cyclopentylmethyl)-1-(1-(1-oxo-1,2-dihydroisoquinolin-4-yl)ethyl)urea] | 420 nM
CC(c1c[nH]c(=O)c2ccccc12)N(CC1CCCC1)C(=O)Nc1ccc(F)c(Cl)c1 (single isomer, unassigned) [Compound 193, 3-(3-Chloro-4-fluorophenyl)-1-(cyclopentylmethyl)-1-(1-(1-oxo-1,2-dihydroisoquinolin-4-yl)ethyl)urea] | 10 nM
CC(c1c[nH]c(=O)c2ccccc12)N(CC1CCCCC1)C(=O)Nc1ccc(F)c(Cl)c1 (single isomer, unassigned) [Compound 194, 3-(3-Chloro-4-fluorophenyl)-1-(cyclohexylmethyl)-1-(1-(1-oxo-1,2-dihydroisoquinolin-4-yl)ethyl)urea] | 950 nM
CC(c1c[nH]c(=O)c2ccccc12)N(CC1CCCCC1)C(=O)Nc1ccc(F)c(Cl)c1 (single isomer, unassigned) [Compound 195, 3-(3-Chloro-4-fluorophenyl)-1-(cyclohexylmethyl)-1-(1-(1-oxo-1,2-dihydroisoquinolin-4-yl)ethyl)urea] | 30 nM
CC(c1c[nH]c(=O)c2ccccc12)N(CCO)C(=O)Nc1ccc(F)c(Cl)c1 (single isomer, unassigned) [Compound 196, 3-(3-Chloro-4-fluorophenyl)-1-(2-hydroxyethyl)-1-(1-(1-oxo-1,2-dihydroisoquinolin-4-yl)ethyl)urea] | 20000 nM
CC(c1c[nH]c(=O)c2ccccc12)N(CCO)C(=O)Nc1ccc(F)c(Cl)c1 (single isomer, unassigned) [Compound 197, 3-(3-Chloro-4-fluorophenyl)-1-(2-hydroxyethyl)-1-(1-(1-oxo-1,2-dihydroisoquinolin-4-yl)ethyl)urea] | 80 nM
CC(c1c[nH]c(=O)c2ccccc12)N(CCNCC(F)F)C(=O)Nc1ccc(F)c(Cl)c1 (single isomer, unassigned) [Compound 198, 3-(3-Chloro-4-fluorophenyl)-1-(2-((2,2-difluoroethyl)amino)ethyl)-1-(1-(1-oxo-1,2-dihydroisoquinolin-4-yl)ethyl)urea] | 11900 nM
CC(c1c[nH]c(=O)c2ccccc12)N(CCNCC(F)F)C(=O)Nc1ccc(F)c(Cl)c1 (single isomer, unassigned) [Compound 199, 3-(3-Chloro-4-fluorophenyl)-1-(2-((2,2-difluoroethyl)amino)ethyl)-1-(1-(1-oxo-1,2-dihydroisoquinolin-4-yl)ethyl)urea] | 2200 nM
CC(=O)N1CCC(CN(C(=O)Nc2ccc(F)c(Cl)c2)C(C)c2c[nH]c(=O)c3ccccc23)CC1 (single isomer, unassigned) [Compound 201, 1-((1-Acetylpiperidin-4-yl)methyl)-3-(3-chloro-4-fluorophenyl)-1-(1-(1-oxo-1,2-dihydroisoquinolin-4-yl)ethyl)urea] | 220 nM
CC(=O)N1CCC(CN(C(=O)Nc2ccc(F)c(Cl)c2)C(C)c2c[nH]c(=O)c3ccccc23)CC1 (single isomer, unassigned) [Compound 202, 1-((1-Acetylpiperidin-4-yl)methyl)-3-(3-chloro-4-fluorophenyl)-1-(1-(1-oxo-1,2-dihydroisoquinolin-4-yl)ethyl)urea] | 7300 nM
CC(c1c[nH]c(=O)c2ccccc12)N(CC1CCN(S(C)(=O)=O)CC1)C(=O)Nc1ccc(F)c(Cl)c1 (single isomer, unassigned) [Compound 203, 3-(3-Chloro-4-fluorophenyl)-1-((1-(methylsulfonyl)piperidin-4-yl)methyl)-1-(1-(1-oxo-1,2-dihydroisoquinolin-4-yl)ethyl)urea] | 10500 nM

Same assay, conditions: Hepatitis B virus, HepDE19, HepDE19 assay, inhibition of formation of rcDNA; read-out: DE-19bDNA EC50

SMILES | EC50
COCCn1cc(C(C)N(C)C(=O)Nc2ccc(F)c(Cl)c2)c2ccccc2c1=O (single isomer, unassigned) [Compound 191, 3-(3-Chloro-4-fluorophenyl)-1-(1-(2-(2-methoxyethyl)-1-oxo-1,2-dihydroisoquinolin-4-yl)ethyl)-1-methylurea] | 360 nM
COCCCn1cc(C(C)N(C)C(=O)Nc2ccc(F)c(Cl)c2)c2ccccc2c1=O (single isomer, unassigned) [Compound 200, 3-(3-Chloro-4-fluorophenyl)-1-(1-(2-(3-methoxypropyl)-1-oxo-1,2-dihydroisoquinolin-4-yl)ethyl)-1-methylurea] | 400 nM
